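Results reflect a 48-hour exposure of cells in 96-well plates to compound at five concentrations. GI50: concentration for 50% inhibition of growth. TGI marks complete inhibition of growth.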
Columns and labels:
Assay in all cases: NCI tumour cell line growth inhibition, 48 h
M19-MEL melanoma = system: M19-MEL melanoma
KM20L2 colon = system: KM20L2 colon
SN12K1 renal = system: SN12K1 renal
HOP-18 NSCLC = system: HOP-18 NSCLC
P388 leukemia = system: P388 leukemia
P388/ADR leukemia = system: P388/ADR leukemia
SNB-78 CNS = system: SNB-78 CNS
DMS 114 small cell lung = system: DMS 114 small cell lung
DMS 273 small cell lung = system: DMS 273 small cell lung
LXFL 529 NSCLC = system: LXFL 529 NSCLC
RXF-631 renal = system: RXF-631 renal

SMILES | TGI (M19-MEL melanoma) | TGI (KM20L2 colon) | TGI (SN12K1 renal) | TGI (HOP-18 NSCLC) | TGI (P388 leukemia) | TGI (P388/ADR leukemia) | TGI (SNB-78 CNS) | TGI (DMS 114 small cell lung) | TGI (DMS 273 small cell lung) | TGI (LXFL 529 NSCLC) | GI50 (M19-MEL melanoma) | GI50 (KM20L2 colon) | GI50 (SNB-78 CNS) | GI50 (DMS 273 small cell lung) | TGI (RXF-631 renal)
COc1cc(C2(c3ncc[nH]3)SSSCC2O)ccc1O (stereo not given) | > 39.6 µM | > 100 µM | > 55.4 µM | > 100 µM | > 48.1 µM | > 54.8 µM | > 100 µM | 52.2 µM | > 100 µM | – | – | – | – | – | –
CCCCCCCCCOCC(COP(=O)([O-])OCC[N+](C)(C)C)OC (stereo not given) | > 100 µM | > 100 µM | > 100 µM | > 100 µM | > 100 µM | > 100 µM | > 100 µM | > 100 µM | > 100 µM | – | – | – | – | – | –
CCOC(=O)CC(NC(=O)c1[nH]cnc1/N=N/N(C)C)C(=O)OCC (stereo not given) | > 100 µM | – | – | – | – | – | – | > 100 µM | > 100 µM | > 100 µM | – | – | – | – | –
C/C(=N\NC(=O)c1ccccc1O)c1cccc(/C(C)=N/NC(=O)c2ccccc2O)n1.O=S(=O)([O-])[O-].[Fe+2] | > 100 µM | > 100 µM | – | – | – | – | > 100 µM | > 100 µM | > 100 µM | – | > 100 µM | > 100 µM | > 100 µM | 46.4 µM | –
CC(C)C1NC(=O)CC(c2ccccc2)N(N=O)C1c1ccccc1 (stereo not given) | > 100 µM | > 100 µM | > 100 µM | > 100 µM | > 100 µM | > 100 µM | > 100 µM | > 100 µM | > 100 µM | – | – | – | – | – | –
CSCSCC(CO)NC(=O)/C(C)=C\c1c(C)[nH]c(=O)[nH]c1=O (stereo not given) | > 250 µM | > 250 µM | > 250 µM | – | > 250 µM | > 250 µM | > 250 µM | > 250 µM | > 250 µM | – | – | – | – | – | –
O=C(N/N=C/c1cc(Br)cc(Br)c1[O-])c1ccccc1O.O=C(N/N=C/c1cc(Br)cc(Br)c1[O-])c1ccccc1O.[Zn+2] | – | 6.57 µM | – | – | – | – | – | – | – | – | – | – | – | – | –
Cn1c2ccccc2c(=O)c2c(O)cc3c(c21)C=CC(C)(C)O3 | > 25 µM | > 25 µM | > 25 µM | > 25 µM | > 25 µM | > 25 µM | > 25 µM | > 25 µM | > 25 µM | – | – | – | – | – | –
COc1nc(N)c(NC(C)=O)c(=O)n1C | – | > 100 µM | – | > 100 µM | – | – | > 100 µM | > 100 µM | > 100 µM | > 100 µM | – | – | – | – | > 100 µM
